Measured values published in the supplement of paper PMC7840683.
Where a name gives a salt, the structure may show the parent alone. ± gives the standard deviation of the averaged measurements.

Test system: HepaRG
Assay: LDH release cytotoxicity, % of total lysis control; higher = more cytotoxic
Conditions: 48 h
Procedure, shortened: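 Eight-point half-log series of test chemicals, the highest at 100 µM, were given in duplicate for 48 h to single-lot HepaRG cells on collagen I-coated 96-well plates in serum-free induction medium with 0.5% DMSO. A Tecan Safire read resorufin fluorescence from CytoTox-ONE as a measure of LDH in 50 µL spent medium, with 0.1% Triton X in total lysis wells. Percent cytotoxicity was normalized to on-plate vehicle and total lysis controls and averaged over the duplicates.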

Row | SMILES | LDH release cytotoxicity (0.03162 µM) | LDH release cytotoxicity (0.1 µM) | LDH release cytotoxicity (0.3162278 µM) | LDH release cytotoxicity (1 µM) | LDH release cytotoxicity (3.16228 µM) | LDH release cytotoxicity (10 µM) | LDH release cytotoxicity (31.6228 µM) | LDH release cytotoxicity (100 µM) | further results
1 | Cc1cccc([N+](=O)[O-])c1 [3-Nitrotoluene] |  |  |  |  |  |  |  |  | LDH release cytotoxicity (0.0324133 µM): -0.599 ± 0.21%; LDH release cytotoxicity (0.1025 µM): -1.561 ± 0.014%; LDH release cytotoxicity (0.324134 µM): -1.45 ± 0.26%; LDH release cytotoxicity (1.025 µM): -0.805 ± 0.87%; LDH release cytotoxicity (3.24133 µM): -1.27 ± 0.12%; LDH release cytotoxicity (10.25 µM): -0.551 ± 0.69%; LDH release cytotoxicity (32.4133 µM): -0.321 ± 0.16%; LDH release cytotoxicity (102.5 µM): 0.844 ± 1.1%
2 | C=C(C)CN(CC)c1c([N+](=O)[O-])cc(C(F)(F)F)cc1[N+](=O)[O-] | 0.288 ± 0.69% | -0.786 ± 0.58% | -0.775 ± 0.099% | -1.3 ± 0.21% | -0.72 ± 0.57% | -0.92 ± 0.68% | -0.439 ± 0.064% | 0.333 ± 0.038% | 
3 | O=C1CCCCCN1 [Caprolactam] | -0.496 ± 0.65% | -1.92 ± 0.24% | -1.76 ± 0.37% | -0.953 ± 0.14% | -0.455 ± 0.46% | -0.823 ± 0.29% | -0.101 ± 0.44% | 1.84 ± 0.57% | 
4 | COC(=O)NS(=O)(=O)c1ccc(N)cc1 [Asulam] | -0.269 ± 0.97% | -1.42 ± 0.1% | -0.821 ± 0.14% | -0.262 ± 0.22% | -1.05 ± 0.18% | -0.725 ± 0.87% | -0.233 ± 0.19% | 0.635 ± 1% | 
5 | CCCCCCCCCCCCCO [1-Tridecanol] | -1.51 ± 0.42% | -0.843 ± 0.39% | -0.758 ± 0.15% | -0.914 ± 0.16% | -0.263 ± 1% | 0.564 ± 1.8% | 0.347 ± 1.4% | 3.78 ± 2.1% | 
6 | O=C(O)c1cc(N=Nc2ccc(S(=O)(=O)Nc3ccccn3)cc2)ccc1O [Sulfasalazine] | -0.789 ± 0.12% | -1.61 ± 0.69% | -0.498 ± 0.038% | -0.487 ± 0.14% | -0.767 ± 0.31% | 0.367 ± 0.64% | 0.113 ± 1.2% | 1.04 ± 1.2% | 
7 | O=C(O)C(F)(F)C(F)(F)C(F)(F)C(F)(F)C(F)(F)C(F)(F)C(F)(F)F [Ammonium perfluorooctanoate] | -2.46 ± 0.051% | -2 ± 0.26% | -1.7 ± 0.71% | -2.4 ± 0.45% | -1.55 ± 0.62% | -1.1 ± 0.38% | -0.665 ± 0.52% | 5.278 ± 0.027% | 
8 | CC(C)(C)c1ccc(CSc2cnn(C(C)(C)C)c(=O)c2Cl)cc1 [Pyridaben] | -0.363 ± 1.1% | -1.38 ± 0.78% | -1.47 ± 1.4% | -1.89 ± 1.1% | 17.6 ± 2.4% | 26.6 ± 3.7% | 26.9 ± 1.5% | 34.6 ± 7% | 
9 | CCCCCCCCCCCO [1-Undecanol] |  |  |  |  |  |  |  |  | LDH release cytotoxicity (0.01581 µM): -2.55 ± 0.72%; LDH release cytotoxicity (0.05 µM): -3.97 ± 0.19%; LDH release cytotoxicity (0.1581139 µM): -3.8 ± 1.3%; LDH release cytotoxicity (0.5 µM): -4.64 ± 0.28%; LDH release cytotoxicity (1.5811388 µM): -2.84 ± 0.45%; LDH release cytotoxicity (5 µM): -3.15 ± 0.031%; LDH release cytotoxicity (15.8114 µM): -2.96 ± 1.5%; LDH release cytotoxicity (50 µM): 4.08 ± 2.9%
10 | c1ccc(OP(Oc2ccccc2)Oc2ccccc2)cc1 [Triphenyl phosphite] | -1.51 ± 2.2% | -1.17 ± 0.097% | -1.23 ± 0.038% | -1.46 ± 0.046% | -0.429 ± 0.71% | -1.22 ± 0.2% | -1.26 ± 0.45% | 1.56 ± 0.67% | 
11 | OCC1CO1 (centres undefined) [Glycidol] | -0.883 ± 0.53% | -1.28 ± 0.094% | -0.409 ± 0.45% | -1.25 ± 0.47% | -0.452 ± 0.0064% | -0.678 ± 0.18% | -0.342 ± 0.43% | 1.57 ± 0.042% | 
12 | C=CCc1ccc(O)c(OC)c1 [Eugenol] | -2.2 ± 1.2% | -1.91 ± 0.14% | -1.79 ± 0.029% | -2.07 ± 0.26% | -2.07 ± 0.21% | -1.74 ± 0.19% | -0.896 ± 0.51% | -0.336 ± 0.32% | 
13 | CCCCN1C(=O)C(C(O)C2CCCCC2)NC(=O)C12CCN(Cc1ccc(Oc3ccc(C(=O)O)cc3)cc1)CC2 (centres undefined) [Aplaviroc hydrochloride] | -1.85 ± 0.7% | -1.71 ± 0.38% | -3.23 ± 0.59% | -2.439 ± 0.0083% | -3.02 ± 0.42% | 0.0163 ± 0.13% | 7.4 ± 0.52% | 27.4 ± 2.6% | 
14 | ClC1=C(Cl)C(Cl)(Cl)C(Cl)=C1Cl [Hexachlorocyclopentadiene] |  | -0.0238 ± 0.36% |  | -1.14 ± 0.92% | -0.83 ± 0.046% | -0.988 ± 0.15% | -0.0453 ± 0.82% | 0.368 ± 1.3% | LDH release cytotoxicity (0.031623 µM): -1.11 ± 2.6%; LDH release cytotoxicity (0.316228 µM): -1.49 ± 0.55%
15 | OCCNCCO [Diethanolamine] |  | -1.45 ± 1.3% |  | -2.4 ± 0.18% | -2.41 ± 0.4% | -1.71 ± 0.48% | -0.726 ± 0.53% | 0.309 ± 0.55% | LDH release cytotoxicity (0.031623 µM): -1.15 ± 0.87%; LDH release cytotoxicity (0.316228 µM): -1.83 ± 0.56%
16 | CC(C)CCCCCCOC(=O)C1CCCCC1C(=O)OCCCCCCC(C)C (centres undefined) [Diisononyl cyclohexane-1,2-dicarboxylate] | -0.786 ± 0.8% | -0.599 ± 0.29% | -1.09 ± 0.054% | -0.000557 ± 0.59% | -0.402 ± 0.22% | 0.246 ± 0.61% | -0.258 ± 0.077% | 1.07 ± 0.34% | 
17 | CN(C)C(=S)S [Sodium dimethyldithiocarbamate] | -0.405 ± 0.41% | -0.29 ± 1% | -0.988 ± 0.04% | -0.72 ± 0.44% | -0.138 ± 0.64% | 0.154 ± 0.44% | 0.196 ± 0.41% | 2.63 ± 2.6% | 
18 | NC=O [Formamide] | -0.907 ± 0.53% | -1.37 ± 0.46% | -0.701 ± 1.2% | -1.62 ± 1.2% | -1.72 ± 0.14% | -1.47 ± 1.5% | -0.537 ± 0.33% | 0.4 ± 1.3% | 
